Drawing on PubChem BioAssay AID434967 (Sanford-Burnham Center for Chemical Genomics, 2010), this text covers IC50 for ten compounds.

Usually pIC50 stands for the IC50 on a negative log10 scale, so that one unit is a factor of ten.

SMILES strings stand for the structures. pIC50: −log10 of the molar value.

The assay in a line: blockers of HIV fusion peptide binding, cell-free – biochemical, fluorescence quenching, SAR follow-up (AID 434967). To be noted: 30 min.
For `COc1cc(C=NNc2ccc(Cl)c(C(=O)O)c2)ccc1OC(=O)c1ccc(F)cc1`, the pIC50 is 5.10.

Consider `CCOC(=O)c1sc(N2C(=O)C(O)=C(C(=O)c3ccc(C)o3)C2c2cccc([N+](=O)[O-])c2)nc1C` (stereo not given), for which the pIC50 is 4.98.

Consider `COc1ccc(C(=O)Oc2ccc(C=NNc3ccc(Cl)c(C(=O)O)c3)cc2OC)cc1`, for which the pIC50 is 5.29.

Consider `O=C(O)c1cc(NN=Cc2ccc(-c3ccccc3)cc2)ccc1Cl`, for which the pIC50 was 4.83.

For `O=C(O)c1ccccc1N=Nc1c(O)[nH]c2ccc([N+](=O)[O-])cc12`, the pIC50 is 4.88.

Consider `COc1cc(C=NNc2ccc(Cl)c(C(=O)O)c2)ccc1OC(=O)c1ccccc1F`, for which the pIC50 was 4.59.

Take `Cc1c2c(=O)n(-c3nc4ccccc4s3)nc-2cc(O)n1Cc1ccccc1`: the pIC50 was 5.00.

For `CC(C)(C)c1cc(-c2csc(Nc3ccccc3)[n+]2Cc2ccc(C(=O)O)cc2)cc(C(C)(C)C)c1O`, the pIC50 was 4.56.

Regarding `N#C/C(=C\c1ccc(O)c([N+](=O)[O-])c1)c1nc2ccccc2s1`, the pIC50 was 5.20.

Regarding `O=C(N/N=C/c1c(O)n(C2CCCCC2)c(=S)[nH]c1=O)c1ccccc1O`, the pIC50 is 5.05.
